Consider 8 compounds from article PMC11633415, “Investigation of the inhibitory properties of azo-dyes on chorismate synthase from Paracoccidioides brasiliensis” (Journal of Enzyme Inhibition and Medicinal Chemistry, 2024).

Read-outs that look alike come from different tables or passages of the source.

The target in assay [1] is CS from Neurospora crassa. Also on record: method as in earlier work. To be noted: competitive inhibitor of CS from Neurospora crassa ref 9; cited from earlier work.
Assay [2] relates to CS. Also on record: method as in PMID 7559411. The note with it: very slow substrate of CS ref 10; cited from earlier work.
Assay [3] has as its system CS from Streptococcus pneumoniae (SpCS). Also on record: method as in PMID 12565943. To be noted: SpCS ref 12; cited from earlier work.
Assay [4] has as its target T1, PbCS (Paracoccidioides brasiliensis, UniProt C1GBW5). Also on record: method as in PMID 30348661.
For assay [5], the target named is T1, PbCS. Also on record: method as in PMID 30348661. The note with it: PbCS ref 13, cited from earlier work.
Assay [6] concerns the target CS from N. crassa. The note with it: CS from N. crassa ref 30; cited from earlier work.
The target in assay [7] is chorismate synthase from Paracoccidioides brasiliensis (PbCS) (Paracoccidioides brasiliensis, UniProt C1GBW5). Nature of the assay: Spectrophotometric titration / binding assay, PbCS. As to the method: (§1) For the binding studies, PH011669 was dissolved in 50 mM NaH2PO4 and 150 mM NaCl at pH 8, diluted to a final concentration of approximately 10 µM (A580nm ∼0.25; 800 µL), and transferred to a quartz cuvette (with 800 µL of buffer in the reference cuvette). After recording an initial UV-visible absorption spectrum between 300 and 800 nm, 10 µL aliquots of PbCS (∼55 µM) were added, and spectral changes were monitored after each addition. To quantify the binding affinity of PH011669 to PbCS, we plotted the relative absorption changes at 510 nm as a function of the protein concentration in the cuvette[17].

The target in assay [8] is T2, chorismate synthase (CS) (Trichormus variabilis, UniProt Q3MFM3).
T2 construct: made in house; host or cells: E. coli
Nature of the assay: Spectrophotometric titration, CS from Anabaena variabilis. Type of assay: binding. To be noted: CS from Anabaena variabilis (cyanobacterium).

The target in assay [9] is T3, chorismate synthase (CS) (Aquifex aeolicus, UniProt O66493).
T3 construct: made in house; host or cells: E. coli
Nature of the assay: Spectrophotometric titration, CS from Aquifex aeolicus. Type of assay: binding.

The target of assay [10] is chorismate synthase (CS) (Botrytis cinerea, UniProt A0A384JF70). Kind of assay: Spectrophotometric titration, CS from Botrytis fuckeliana. Type of assay: binding. The note with it: CS from Botrytis fuckeliana (fungus).
In assay [11] the target is chorismate synthase (CS) (Candida albicans, UniProt A0A1D8PTK1). Nature of the assay: Spectrophotometric titration, CS from Candida albicans. The note with it: CS from Candida albicans (fungus). Type of assay: binding.
Assay [12] has as its target T4, chorismate synthase (CS) (Capnoides sempervirens, UniProt P27793).
T4 construct: made in house; host or cells: E. coli
Kind of assay: Spectrophotometric titration, CS from Corydalis sempervirens. Type of assay: binding. To be noted: CS from Corydalis sempervirens (plant).

In assay [13] the target is T5, chorismate synthase (CS) (Escherichia coli, UniProt P12008).
T5 construct: made in house; host or cells: E. coli
Kind of assay: Spectrophotometric titration, CS from Escherichia coli. Type of assay: binding.

The target of assay [14] is chorismate synthase (CS) (Methanothermobacter thermautotrophicus, UniProt O26843). Kind of assay: Spectrophotometric titration, CS from Methanobacterium thermoautotrophicum. Type of assay: binding.
Assay [15] addresses T6, chorismate synthase (CS) (Neurospora crassa, UniProt Q12640).
T6 construct: made in house; host or cells: E. coli
Kind of assay: Spectrophotometric titration, CS from Neurospora crassa. Type of assay: binding. To be noted: CS from Neurospora crassa (fungus). The protocol:
as §1

The target of assay [16] is T7, chorismate synthase (CS) (Saccharomyces cerevisiae, UniProt P28777).
T7 construct: made in house; host or cells: E. coli
Kind of assay: Spectrophotometric titration, CS from Saccharomyces cerevisiae. The assay is classed as binding. The note with it: CS from Saccharomyces cerevisiae (yeast).

In assay [17] the target is chorismate synthase (CS). Nature of the assay: Spectrophotometric titration, CS from Solanum lycopersicum. Type of assay: binding. The note with it: CS from Solanum lycopersicum (plant).
In assay [18] the target is chorismate synthase (CS) (Staphylococcus aureus, UniProt Q2FYG9). Kind of assay: Spectrophotometric titration, CS from Staphylococcus aureus. The assay is classed as binding.
The target of assay [19] is chorismate synthase (CS) (Tetrahymena thermophila, UniProt Q23FV7). Kind of assay: Spectrophotometric titration, CS from Tetrahymena thermophila. The assay is classed as binding.
In assay [20] the target is T8, chorismate synthase (CS) (Thermotoga maritima, UniProt Q9WYI2).
T8 construct: made in house; host or cells: E. coli
Kind of assay: Spectrophotometric titration, CS from Thermotoga marítima. The assay is classed as binding.

The target in assay [21] is chorismate synthase (CS) (Toxoplasma gondii, UniProt O02607). Nature of the assay: Spectrophotometric titration, CS from Toxoplasmodium gondii. The assay is classed as binding. To be noted: CS from Toxoplasmodium gondii (protozoon).
Assay [22] concerns the target T1, PbCS. Kind of assay: Isothermal titration calorimetry (ITC). The note with it: single site binding model, 25 °C, pH 8, triplicates, read-out: dissociation constant by ITC. The protocol: Isothermal titration calorimetry (ITC) was performed on a MicroCal PEAQ-ITC. All ITC experiments were conducted in storage buffer (50 mM NaH2PO4, 150 mM NaCl, pH 8) at 25 °C and a stirring rate of 750 rpm. Titration experiments consisted of 13 injections (first injection: 0.4 µL; duration time: 0.8 s; spacing time: 300 s; 2nd–13th injection: 3 µL; duration time: 6 s; spacing time: 150 s) and were performed in triplicates. The azo-dye PH011669 (500 µM) was loaded into the injection syringe and titrated into the sample cell containing PbCS (25 µM); the reference cell was filled with degassed ddH2O. Dissociation constants were obtained with the MicroCal PEAQ-ITC Analysis Software (Malvern) using the “one set of sites fitting” model.
On the technique in general: ITC needs no label: the signal is the heat of the interaction.

Assay [23] concerns the target T1, PbCS. Nature of the assay: Inhibition assay, CS reaction coupled with anthranilate synthase reaction. The assay is classed as biochemical. The note with it: 80 μM EPSP, 4 μM PbCS, 37 °C, Hill fit. As to the method: The influence of PH011669 on the activity of PbCS was tested by forward coupling the CS reaction with the anthranilate synthase reaction. The final reaction solution contained 80 μM EPSP, 4 μM PbCS, 7 µM YcnD, 20 μM anthranilate synthase, 4 mM MgSO4, 10 mM L-glutamine (L-Gln), 30 mM (NH4)2SO4, 1 mM dithiothreitol (DTT) and different concentrations of the inhibitor (0.1–250 µM). The assay was prepared in 10 mM potassium phosphate at pH 7.6 and pipetted into a 96-well plate. The reaction was started by the addition of 500 µM NADPH. PbCS activity could be studied spectrofluorometrically at 37 °C by following the increase in the fluorescence intensity at 390 nm (λex = 340 nm) for 5 min, which correlates with the amount of anthranilate formed in the course of the reaction. The slopes of the initial velocities were determined and plotted as a function of the log of the corresponding PH011669 concentration (triplicates were determined).
To test the inhibitory effect of PH011669 on the activity of CS, we used a coupled assay involving EPSP, CS, YcnD and anthranilate synthase. Our inhibition assay has been used to determine the ability of a drug to reduce the activity of the enzyme. The resulting IC50 value gives the concentration of a drug required for 50% inhibition of the enzymatic activity. […]

T1 sequence (C1GBW5 entry or part of it): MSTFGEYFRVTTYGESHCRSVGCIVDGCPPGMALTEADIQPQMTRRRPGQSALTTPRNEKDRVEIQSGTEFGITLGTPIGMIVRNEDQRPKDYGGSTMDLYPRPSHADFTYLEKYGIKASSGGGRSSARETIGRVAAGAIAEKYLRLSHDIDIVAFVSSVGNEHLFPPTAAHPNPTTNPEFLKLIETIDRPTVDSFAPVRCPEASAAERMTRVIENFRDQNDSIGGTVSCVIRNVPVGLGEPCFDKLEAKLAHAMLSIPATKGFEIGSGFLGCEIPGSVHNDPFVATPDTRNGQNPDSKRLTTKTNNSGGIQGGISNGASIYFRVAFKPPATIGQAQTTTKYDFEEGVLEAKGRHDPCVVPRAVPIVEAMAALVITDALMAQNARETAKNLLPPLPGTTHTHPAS
Chain of chorismate synthase from Paracoccidioides brasiliensis (PbCS) (C1GBW5 entry or part of it): as above
Chain of chorismate synthase (CS) (Candida albicans, UniProt A0A1D8PTK1) (A0A1D8PTK1 entry or part of it): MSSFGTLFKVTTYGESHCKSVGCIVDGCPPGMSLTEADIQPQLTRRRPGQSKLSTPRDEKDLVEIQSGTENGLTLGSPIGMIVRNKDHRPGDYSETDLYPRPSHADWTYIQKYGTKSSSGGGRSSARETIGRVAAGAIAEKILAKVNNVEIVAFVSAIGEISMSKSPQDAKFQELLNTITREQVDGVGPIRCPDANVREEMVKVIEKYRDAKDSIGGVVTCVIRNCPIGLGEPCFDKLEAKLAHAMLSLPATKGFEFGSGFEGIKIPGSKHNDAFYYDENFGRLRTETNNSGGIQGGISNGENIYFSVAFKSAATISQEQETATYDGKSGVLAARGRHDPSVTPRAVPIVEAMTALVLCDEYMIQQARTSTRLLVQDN
T6 sequence (Q12640 whole entry): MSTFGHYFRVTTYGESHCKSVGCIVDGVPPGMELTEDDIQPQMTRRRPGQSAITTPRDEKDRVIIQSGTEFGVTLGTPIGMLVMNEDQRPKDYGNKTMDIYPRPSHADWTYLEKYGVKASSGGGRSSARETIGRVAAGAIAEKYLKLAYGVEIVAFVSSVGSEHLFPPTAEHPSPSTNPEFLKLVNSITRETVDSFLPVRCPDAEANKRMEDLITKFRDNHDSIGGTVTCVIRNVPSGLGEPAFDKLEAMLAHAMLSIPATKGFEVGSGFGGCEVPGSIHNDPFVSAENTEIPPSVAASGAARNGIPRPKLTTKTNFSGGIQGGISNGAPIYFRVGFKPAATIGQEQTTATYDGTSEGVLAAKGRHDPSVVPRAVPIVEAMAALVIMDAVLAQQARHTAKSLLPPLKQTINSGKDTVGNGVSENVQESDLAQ
Chain of chorismate synthase (CS) (Tetrahymena thermophila, UniProt Q23FV7) (Q23FV7 entry or part of it): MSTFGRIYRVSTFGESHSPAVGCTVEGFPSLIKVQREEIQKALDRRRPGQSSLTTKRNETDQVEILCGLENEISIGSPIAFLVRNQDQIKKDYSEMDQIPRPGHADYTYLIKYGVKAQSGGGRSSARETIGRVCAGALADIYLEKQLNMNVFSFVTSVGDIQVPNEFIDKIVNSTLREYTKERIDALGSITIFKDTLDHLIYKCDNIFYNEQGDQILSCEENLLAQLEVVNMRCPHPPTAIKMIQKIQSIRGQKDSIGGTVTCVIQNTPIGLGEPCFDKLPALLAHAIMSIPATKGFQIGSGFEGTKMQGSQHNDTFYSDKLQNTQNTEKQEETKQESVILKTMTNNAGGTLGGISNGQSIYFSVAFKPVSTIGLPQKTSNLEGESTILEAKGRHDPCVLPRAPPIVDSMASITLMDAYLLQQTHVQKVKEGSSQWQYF
Chain of chorismate synthase (CS) (Botrytis cinerea, UniProt A0A384JF70) (A0A384JF70 entry or part of it): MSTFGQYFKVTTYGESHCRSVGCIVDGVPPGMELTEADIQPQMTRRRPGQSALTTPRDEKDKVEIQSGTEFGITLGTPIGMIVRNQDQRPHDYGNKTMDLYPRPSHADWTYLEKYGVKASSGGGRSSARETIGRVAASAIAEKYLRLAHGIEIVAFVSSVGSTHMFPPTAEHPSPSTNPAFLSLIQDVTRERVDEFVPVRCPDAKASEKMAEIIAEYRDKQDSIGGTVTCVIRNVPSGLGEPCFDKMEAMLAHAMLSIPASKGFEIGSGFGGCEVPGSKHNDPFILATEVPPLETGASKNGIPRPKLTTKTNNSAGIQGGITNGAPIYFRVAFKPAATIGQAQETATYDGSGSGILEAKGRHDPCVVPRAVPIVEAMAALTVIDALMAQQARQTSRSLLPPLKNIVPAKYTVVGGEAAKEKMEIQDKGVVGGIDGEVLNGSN
Chain of chorismate synthase (CS) (Toxoplasma gondii, UniProt O02607) (O02607 whole entry): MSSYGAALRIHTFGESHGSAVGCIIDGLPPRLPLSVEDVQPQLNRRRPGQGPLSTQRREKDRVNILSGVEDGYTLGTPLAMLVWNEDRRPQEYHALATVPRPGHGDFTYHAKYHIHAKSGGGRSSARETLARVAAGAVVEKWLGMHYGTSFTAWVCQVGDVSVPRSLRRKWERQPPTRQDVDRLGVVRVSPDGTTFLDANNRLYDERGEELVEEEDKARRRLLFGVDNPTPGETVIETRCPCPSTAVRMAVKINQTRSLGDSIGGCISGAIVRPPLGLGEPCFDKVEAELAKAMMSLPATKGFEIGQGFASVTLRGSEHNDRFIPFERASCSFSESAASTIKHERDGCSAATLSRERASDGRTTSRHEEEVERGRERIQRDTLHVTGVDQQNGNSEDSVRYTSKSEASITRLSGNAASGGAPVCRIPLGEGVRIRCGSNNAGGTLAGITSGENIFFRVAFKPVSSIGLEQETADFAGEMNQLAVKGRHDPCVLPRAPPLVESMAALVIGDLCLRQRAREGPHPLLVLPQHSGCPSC
T2 sequence (Q3MFM3 whole entry): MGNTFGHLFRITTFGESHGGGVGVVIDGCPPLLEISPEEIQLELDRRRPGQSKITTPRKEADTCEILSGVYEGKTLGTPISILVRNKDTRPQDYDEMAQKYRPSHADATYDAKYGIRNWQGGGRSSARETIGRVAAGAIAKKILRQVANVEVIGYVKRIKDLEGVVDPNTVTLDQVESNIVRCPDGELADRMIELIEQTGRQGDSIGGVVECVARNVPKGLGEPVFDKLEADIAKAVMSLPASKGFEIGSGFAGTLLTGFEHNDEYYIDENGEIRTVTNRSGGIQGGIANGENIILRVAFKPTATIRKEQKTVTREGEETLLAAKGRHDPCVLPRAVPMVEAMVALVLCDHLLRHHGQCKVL
T3 sequence (O66493 whole entry): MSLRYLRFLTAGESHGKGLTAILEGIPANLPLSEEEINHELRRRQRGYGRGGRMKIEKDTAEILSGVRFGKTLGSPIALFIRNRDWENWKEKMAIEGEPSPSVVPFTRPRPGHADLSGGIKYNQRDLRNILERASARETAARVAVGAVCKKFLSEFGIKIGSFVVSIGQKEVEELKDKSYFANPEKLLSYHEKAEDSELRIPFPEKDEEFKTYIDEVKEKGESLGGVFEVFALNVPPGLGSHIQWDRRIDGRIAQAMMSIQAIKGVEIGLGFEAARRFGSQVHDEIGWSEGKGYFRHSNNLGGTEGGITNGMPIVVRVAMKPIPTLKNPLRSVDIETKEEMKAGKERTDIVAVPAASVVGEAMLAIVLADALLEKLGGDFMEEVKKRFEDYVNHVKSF
Chain of chorismate synthase (CS) (Methanothermobacter thermautotrophicus, UniProt O26843) (O26843 whole entry): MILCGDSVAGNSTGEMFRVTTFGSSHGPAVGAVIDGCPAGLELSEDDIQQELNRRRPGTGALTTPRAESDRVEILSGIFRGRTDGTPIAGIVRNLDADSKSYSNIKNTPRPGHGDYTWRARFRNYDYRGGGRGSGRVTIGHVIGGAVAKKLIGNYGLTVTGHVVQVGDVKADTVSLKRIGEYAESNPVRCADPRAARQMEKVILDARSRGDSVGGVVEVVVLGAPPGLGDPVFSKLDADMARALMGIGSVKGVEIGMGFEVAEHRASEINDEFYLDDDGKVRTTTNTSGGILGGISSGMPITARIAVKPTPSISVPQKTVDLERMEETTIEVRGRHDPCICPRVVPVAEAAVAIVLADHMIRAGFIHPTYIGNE
T8 sequence (Q9WYI2 whole entry): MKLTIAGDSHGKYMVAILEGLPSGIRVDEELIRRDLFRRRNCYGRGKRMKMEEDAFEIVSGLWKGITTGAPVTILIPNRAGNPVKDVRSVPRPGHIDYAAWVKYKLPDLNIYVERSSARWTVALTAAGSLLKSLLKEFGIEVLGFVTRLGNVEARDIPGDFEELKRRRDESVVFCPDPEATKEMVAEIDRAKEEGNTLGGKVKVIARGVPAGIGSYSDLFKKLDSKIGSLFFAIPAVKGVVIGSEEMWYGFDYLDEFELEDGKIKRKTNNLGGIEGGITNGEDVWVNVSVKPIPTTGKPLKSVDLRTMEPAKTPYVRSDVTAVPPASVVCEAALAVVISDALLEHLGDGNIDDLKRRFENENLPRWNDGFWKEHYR
T5 sequence (P12008 whole entry): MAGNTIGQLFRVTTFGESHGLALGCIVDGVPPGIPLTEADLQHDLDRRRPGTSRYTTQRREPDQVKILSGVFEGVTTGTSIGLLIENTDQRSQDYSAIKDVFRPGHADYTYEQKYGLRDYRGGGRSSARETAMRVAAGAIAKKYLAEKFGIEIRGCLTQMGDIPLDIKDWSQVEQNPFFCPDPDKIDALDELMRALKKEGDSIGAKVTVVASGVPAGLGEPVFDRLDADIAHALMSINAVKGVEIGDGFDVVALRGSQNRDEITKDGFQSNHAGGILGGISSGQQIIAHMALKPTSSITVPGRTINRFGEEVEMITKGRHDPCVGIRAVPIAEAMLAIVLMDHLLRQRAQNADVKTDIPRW

Regarding `C=C(OC1C(O)C(OP(=O)(O)O)C=C(C(=O)O)[C@H]1F)C(=O)O` (stereo partly drawn) [6(R)-6-fluoro-EPSP, (6R)-6-fluoro-5-enolpyruvylshikimate 3-phosphate], the Ki in assay [1] was 3 ± 0.3 µM.

As to `C=C(OC1C(O)C(OP(=O)(O)O)C=C(C(=O)O)[C@@H]1F)C(=O)O` (stereo partly drawn) [6(S)-6-fluoro-EPSP, (6S)-6-fluoro-5-enolpyruvylshikimate-3-phosphate], the “slower turnover than EPSP” value in [2] is 200 fold.

On to `CCN(CC)c1ccc(/C=C2\Oc3c(ccc(O)c3O)C2=O)cc1` [BF1], for which the 50% inhibitory concentration (IC50) in [3] is 8 µM.

For `CCCCCOc1ccc(/C=C2\Oc3c(ccc(O)c3O)C2=O)c(O)c1` [BF2], the IC50 in assay [3] was 0.22 µM.

For `O=C(O)[C@H]1Nc2c(cccc2[N+](=O)[O-])[C@@H]2[C@H](Cl)[C@@H](Sc3ccccc3[N+](=O)[O-])C[C@@H]21` [CP1, (1S,2S,3aS,4S,9bR)-1-chloro-6-nitro-2-(2-nitrophenyl)sulfanyl-2,3,3a,4,5,9b-hexahydro-1H-cyclopenta[c]quinoline-4-carboxylic acid], the Kd in assay [4] (read-out: dissociation constant; PbCS ref 13; cited from earlier work) is 64 ± 1 µM. Besides, the concentration for half-maximal inhibition (IC50) in assay [5] is 47 µM.

For the compound `O=[N+]([O-])c1ccc(/N=N/c2c(S(=O)(=O)O)cc3cc(S(=O)(=O)O)ccc3c2O)c([N+](=O)[O-])c1` [CaCS02, 2-(2,4-dinitrophenylazo)-1-hydroxynaphthalene-3,6-disulfonic acid (nitrazine yellow)], the Kd in assay [4] (PbCS ref 13; read-out: dissociation constant; cited from earlier work) was 20 µM. Further, the IC50 in assay [5] (read-out: IC50) was 29 µM.

On to `C=C(OC1CC(C(=O)O)=CC(OP(=O)(O)O)C1O)C(=O)O` (stereo not drawn) [EPSP, 5-enolpyruvylshikimate-3-phosphate], for which the Kd in assay [6] was 17 µM.

Turning to `Nc1cc(S(=O)(=O)O)cc2cc(S(=O)(=O)O)c(/N=N/c3cc([N+](=O)[O-])cc(Cl)c3O)c(O)c12` [PH011669, 5-amino-3-[(E)-(3-chloro-2-hydroxy-5-nitrophenyl)diazenyl]-4-hydroxy-2,7-naphthalenedisulfonic acid], the “higher affinity than the initial hit” value in [7] (affinity to PbCS relative to initial hit (CaCS02)) is “ca. 20 fold”. The Kd in [7] (read-out: Kd (dissociation constant), spectrophotometric titration, PbCS) is 1.1 µM; in [8] it was 1.8 ± 0.1 µM; in assay [9], 3.2 ± 0.1 µM; in assay [10] it was 4 ± 0.6 µM; in [11] it was 4.6 ± 0.7 µM; in assay [12], 1 ± 0.1 µM. Besides, the Kd in assay [13] came to 3.7 ± 1 µM; in assay [14], 2.7 µM; in [15], 3.5 ± 0.1 µM; in [16], 2.4 ± 0.1 µM; in assay [17], 1.8 ± 0.1 µM; in assay [18] it was 3.7 ± 0.1 µM. Also, the Kd was 4.4 ± 0.1 µM in [19], 1.5 µM in assay [20], 1.7 µM in [21] and 3.8 ± 1.8 µM in [22]. Also, in assay [23], the midpoint of inhibition, the IC50, lay at 10 ± 1 µM.

Usually Ki stands for a dissociation constant, usually derived from enzyme kinetics or from competition with a known ligand. A word on the IC50: it is the concentration that gives 50% inhibition.
